This note sets out measurements from ChEMBL document CHEMBL2069259, “Preclinical strategy to reduce clinical hepatotoxicity using in vitro bioactivation data for >200 compounds” (Chem Res Toxicol, 2012).

Starred links: 1 amine or outer side, 2 acyl side, 3 side chain; linkers in the order of their positions; H or OH if unused. Positions of bridges follow the written chain, without caps; N, C: chain ends. Non-standard residues stand in square brackets, D forms with d. Residues, ends and D or L forms follow the SMILES beside them. Chains are numbered I, II in the order given. Actinocin(9to1) = Cc1c2oc3c(C)ccc(C(=O)[*:1])c3nc-2c(C(=O)[*:2])c(N)c1=O; NMeV = CN[C@H](C(=O)O)C(C)C; Sar = CNCC(=O)O

One data set concerns the target CYP2C9 (Homo sapiens, UniProt P11712). The data set is described as follows: Inhibition of human CYP2C9 assessed as ratio of IC50 in absence of NADPH to IC50 for presence of NADPH using 7-methoxy-4-trifluoromethylcoumarin-3-acetic acid as substrate after 30 mins.
A further data set has as its target T1, CYP1A2 (Homo sapiens, UniProt P05177).
T1 sequence (P05177 whole entry): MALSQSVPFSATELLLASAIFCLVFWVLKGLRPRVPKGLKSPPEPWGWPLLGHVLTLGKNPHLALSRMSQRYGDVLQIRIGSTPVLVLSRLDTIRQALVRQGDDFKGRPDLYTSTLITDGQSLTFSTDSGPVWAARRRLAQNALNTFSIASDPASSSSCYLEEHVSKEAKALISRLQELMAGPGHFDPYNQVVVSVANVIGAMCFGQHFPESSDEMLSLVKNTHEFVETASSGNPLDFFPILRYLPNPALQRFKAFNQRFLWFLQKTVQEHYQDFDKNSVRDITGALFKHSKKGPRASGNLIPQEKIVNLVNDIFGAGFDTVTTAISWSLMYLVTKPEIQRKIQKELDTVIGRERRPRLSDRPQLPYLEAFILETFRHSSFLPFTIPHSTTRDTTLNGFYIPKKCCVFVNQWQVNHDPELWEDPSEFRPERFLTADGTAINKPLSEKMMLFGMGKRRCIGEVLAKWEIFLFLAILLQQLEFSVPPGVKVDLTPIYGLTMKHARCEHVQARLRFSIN
Briefly: Inhibition of human CYP1A2 assessed as ratio of IC50 in absence of NADPH to IC50 for presence of NADPH using ethoxyresorufin as substrate after 30 mins.

The next data set addresses CYP2C19 (Homo sapiens, UniProt P33261). The data set is described as follows: Inhibition of human CYP2C19 assessed as ratio of IC50 in absence of NADPH to IC50 for presence of NADPH using 3-butyryl-7-methoxycoumarin as substrate after 30 mins.
Another data set concerns the target CYP2D6 (Homo sapiens, UniProt P10635). The data set is described as follows: Inhibition of human CYP2D6 assessed as ratio of IC50 in absence of NADPH to IC50 for presence of NADPH using 4-methylaminoethyl-7-methoxycoumarin as substrate after 30 mins.
In data set [1] the target is T2, CYP3A4 (Homo sapiens, UniProt P08684). Briefly: Inhibition of human CYP3A4 assessed as ratio of IC50 in absence of NADPH to IC50 for presence of NADPH using diethoxyfluorescein as substrate after 30 mins.
In data set [2] the test system is Liver microsomes. Briefly: Metabolic stability in human liver microsomes assessed as GSH adduct formation at 100 uM after 90 mins by HPLC-MS analysis. As to conditions: 1.5 h. A general note: Liver microsomes are a subcellular fraction often used to study metabolism.
Data set [3] concerns Liver microsomes. The data set is described as follows: Metabolic stability in human liver microsomes assessed as high signal/noise ratio (S/N of >100) by measuring GSH adduct formation at 100 uM after 90 mins by HPLC-MS analysis. As to conditions: 1.5 h.
Data set [4] deals with T2, CYP3A4. Briefly: Inhibition of human CYP3A4 assessed as ratio of IC50 in absence of NADPH to IC50 for presence of NADPH using 7-benzyloxyquinoline as substrate after 30 mins.
In data set [5] the test system is Liver microsomes. Conditions: human, 1.5 h, 100 µM.
The mark [6] stands for this setting: probe 3-butyryl-7-methoxycoumarin.
Where [7] appears, read: probe 4-methylaminoethyl-7-methoxycoumarin.
Where [8] appears, read: probe 7-methoxy-4-trifluoromethylcoumarin-3-acetic acid.

Chain of CYP2C19 (P33261 whole entry): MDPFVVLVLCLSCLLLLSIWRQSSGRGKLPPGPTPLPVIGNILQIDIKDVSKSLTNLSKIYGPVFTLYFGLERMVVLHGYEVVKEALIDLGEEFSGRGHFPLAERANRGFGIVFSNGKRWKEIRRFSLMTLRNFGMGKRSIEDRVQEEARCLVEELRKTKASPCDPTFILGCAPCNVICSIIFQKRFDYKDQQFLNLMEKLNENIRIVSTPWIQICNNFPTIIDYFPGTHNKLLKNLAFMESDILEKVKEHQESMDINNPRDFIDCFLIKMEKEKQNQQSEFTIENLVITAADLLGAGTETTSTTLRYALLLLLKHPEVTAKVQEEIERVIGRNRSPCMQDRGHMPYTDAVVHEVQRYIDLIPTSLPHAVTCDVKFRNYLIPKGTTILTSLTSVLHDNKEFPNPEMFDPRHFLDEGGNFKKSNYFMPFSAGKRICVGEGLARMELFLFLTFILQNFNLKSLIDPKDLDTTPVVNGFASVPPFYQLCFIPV
Chain of CYP2D6 (P10635 whole entry): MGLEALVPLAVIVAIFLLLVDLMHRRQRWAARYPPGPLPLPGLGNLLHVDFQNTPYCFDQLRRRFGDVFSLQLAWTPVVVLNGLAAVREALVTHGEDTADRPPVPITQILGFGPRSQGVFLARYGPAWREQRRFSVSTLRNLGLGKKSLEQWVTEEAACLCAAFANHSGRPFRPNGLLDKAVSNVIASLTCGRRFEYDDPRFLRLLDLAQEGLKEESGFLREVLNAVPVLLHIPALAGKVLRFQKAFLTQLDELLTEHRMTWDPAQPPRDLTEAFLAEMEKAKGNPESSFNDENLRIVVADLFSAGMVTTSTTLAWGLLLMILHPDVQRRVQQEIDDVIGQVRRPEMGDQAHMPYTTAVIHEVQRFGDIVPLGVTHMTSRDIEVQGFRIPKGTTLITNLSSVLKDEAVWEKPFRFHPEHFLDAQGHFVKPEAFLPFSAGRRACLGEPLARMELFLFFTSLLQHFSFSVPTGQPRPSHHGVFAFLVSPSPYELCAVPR
Chain of CYP2C9 (P11712 whole entry): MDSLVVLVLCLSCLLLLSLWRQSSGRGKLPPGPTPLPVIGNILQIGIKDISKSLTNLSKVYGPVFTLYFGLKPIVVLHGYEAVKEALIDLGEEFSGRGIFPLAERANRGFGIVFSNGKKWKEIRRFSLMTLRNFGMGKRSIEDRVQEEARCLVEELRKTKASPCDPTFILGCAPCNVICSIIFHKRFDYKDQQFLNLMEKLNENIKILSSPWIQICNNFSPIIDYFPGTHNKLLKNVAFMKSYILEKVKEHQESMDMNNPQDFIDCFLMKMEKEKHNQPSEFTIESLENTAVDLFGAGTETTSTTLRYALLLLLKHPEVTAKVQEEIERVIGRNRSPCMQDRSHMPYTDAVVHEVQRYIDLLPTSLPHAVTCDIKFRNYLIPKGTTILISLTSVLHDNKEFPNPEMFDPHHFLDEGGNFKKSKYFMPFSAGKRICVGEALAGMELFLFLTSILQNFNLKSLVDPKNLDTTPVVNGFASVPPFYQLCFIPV
T2 sequence (P08684 whole entry): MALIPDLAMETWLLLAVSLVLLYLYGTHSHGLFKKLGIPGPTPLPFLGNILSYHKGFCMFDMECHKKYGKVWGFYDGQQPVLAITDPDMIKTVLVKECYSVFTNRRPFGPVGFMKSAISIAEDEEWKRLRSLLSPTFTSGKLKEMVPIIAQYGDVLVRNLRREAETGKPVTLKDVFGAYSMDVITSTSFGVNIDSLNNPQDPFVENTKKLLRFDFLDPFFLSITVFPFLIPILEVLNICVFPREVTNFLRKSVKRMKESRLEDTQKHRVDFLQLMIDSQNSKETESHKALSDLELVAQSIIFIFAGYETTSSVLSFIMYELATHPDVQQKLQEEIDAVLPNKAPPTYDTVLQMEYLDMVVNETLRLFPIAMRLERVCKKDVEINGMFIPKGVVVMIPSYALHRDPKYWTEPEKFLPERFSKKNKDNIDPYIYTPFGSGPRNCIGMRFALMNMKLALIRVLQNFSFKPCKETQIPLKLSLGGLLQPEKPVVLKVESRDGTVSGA

Consider `C1CCC(C(CC2CCCCN2)C2CCCCC2)CC1` (stereo unspecified) [PERHEXILINE], for which the IC50 shift at 0.5 h on CYP2C9 was less than 2.

`CC(C)OC(=O)C(C)(C)Oc1ccc(C(=O)c2ccc(Cl)cc2)cc1` [FENOFIBRATE]: the IC50 shift at 0.5 h at CYP1A2 is more than 5; on CYP2C19 it was less than 2; at CYP2D6, 2; at CYP3A4 [1], less than 2. Further, the Stability entry with Liver microsomes [2] is “Stable”.

As to `CCN(CC)CC#CCOC(=O)C(O)(c1ccccc1)C1CCCCC1` (stereo unspecified) [OXYBUTYNIN], the IC50 shift at 0.5 h on CYP1A2 was more than 2; on CYP2C9 it was less than 2; on CYP2C19, more than 5. In the data set with Liver microsomes [3], the Stability entry is reported as “Unstable”.

As to `Oc1ccc2c3c1O[C@H]1[C@@H](O)CC[C@@]4(O)[C@@H](C2)N(CC2CCC2)CC[C@]314` [NALBUPHINE], on CYP2C9, the IC50 shift at 0.5 h turned out to be 2. Besides, the Stability result with Liver microsomes [2] is recorded as “Stable”.

In the case of `CNCCC(Oc1ccc(C(F)(F)F)cc1)c1ccccc1` (stereo unspecified) [FLUOXETINE], the IC50 shift at 0.5 h on CYP2C9 was 2; at CYP2C19 it was more than 5; at CYP3A4 [1], 2; on CYP3A4 [4], more than 5. The Stability result with Liver microsomes [2] is “Stable”.

For the compound `CC1=C(/C=C/C(C)=C/C=C/C(C)=C/C(=O)O)C(C)(C)CCC1` [TRETINOIN], the IC50 shift at 0.5 h is less than 2 at CYP1A2 (probe ethoxyresorufin); 2 on CYP2C19 (setting [6]); 2 on CYP2D6 (setting [7]); 2 at CYP3A4 [1] (probe diethoxyfluorescein); more than 5 at CYP3A4 [4] (probe 7-benzyloxyquinoline). Also, the Stability result in the data set with Liver microsomes [2] is “Stable”.

As to `Cc1c2oc3c(C)ccc(C(=O)N[C@@H]4C(=O)N[C@H](C(C)C)C(=O)N5CCC[C@H]5C(=O)N(C)CC(=O)N(C)[C@@H](C(C)C)C(=O)O[C@@H]4C)c3nc-2c(C(=O)N[C@@H]2C(=O)N[C@H](C(C)C)C(=O)N3CCC[C@H]3C(=O)N(C)CC(=O)N(C)[C@@H](C(C)C)C(=O)O[C@@H]2C)c(N)c1=O` [DACTINOMYCIN] (I: T[dV]P[Sar][NMeV] / II: T[dV]P[Sar][NMeV]; ester I:1-I:C, II:1-II:C; linker I:N-II:N via Actinocin(9to1)), the IC50 shift at 0.5 h on CYP2C9 (setting [8]) was 2; on CYP2C19 (setting [6]) it was less than 2; at CYP3A4 [4] (probe 7-benzyloxyquinoline), 2. For the same compound, the Stability entry in the data set on Liver microsomes [2] is reported as “Stable”.

Consider `Nc1c2c(nc3ccccc13)CCCC2` [TACRINE], for which the figures for the IC50 shift at 0.5 h on CYP2C9 and on CYP2C19 were 2 and less than 2, respectively. Also, the Stability entry in the data set on Liver microsomes [2] is “Stable”.

As for `CC(COc1ccccc1)N(CCCl)Cc1ccccc1` (stereo unspecified) [PHENOXYBENZAMINE], the IC50 shift at 0.5 h was 2 at CYP1A2 (probe ethoxyresorufin), less than 2 on CYP2C9 (setting [8]), 2 at CYP2C19 (setting [6]) and 2 on CYP3A4 [1] (probe diethoxyfluorescein). Further, the Stability entry with Liver microsomes [3] is recorded as “Unstable”.

Take `COCCCC/C(=N\OCCN)c1ccc(C(F)(F)F)cc1` [FLUVOXAMINE]: the IC50 shift at 0.5 h was less than 2 on CYP1A2 (probe ethoxyresorufin) and 2 at CYP2D6 (setting [7]). The Stability result in the data set with Liver microsomes [3] is on record as “Unstable”.

On to `CC(C)C(=O)Nc1ccc([N+](=O)[O-])c(C(F)(F)F)c1` [FLUTAMIDE], for which the IC50 shift at 0.5 h on CYP1A2, on CYP2D6 and at CYP3A4 [1] was less than 2 each time. The Stability entry in the data set on Liver microsomes [5] is recorded as “Unstable”.

On to `O=C(O)COc1ccc(C(=O)c2cccs2)c(Cl)c1Cl`, for which the values for the IC50 shift at 0.5 h at CYP2C9 and at CYP2C19 were 2 and less than 2, respectively. In addition, the Stability result in the data set on Liver microsomes [2] was “Stable”.

For the compound `NNCCc1ccccc1` [PHENELZINE], the IC50 shift at 0.5 h at CYP1A2 was 2; at CYP2C9 it was 2; on CYP2C19 it was more than 5; on CYP2D6, more than 5; at CYP3A4 [1], 2. Besides, the Stability entry with Liver microsomes [5] is reported as “Unstable”.
